ChEMBL document CHEMBL4219068 (Bioorg Med Chem, 2018)
Calls of active or inactive are those of the source. The rule behind the calls is not given here.

Tests used:
[1] = Drug level in pH 7.4 PBS treated with apomorphine at 8 to 50 uM measured up to 24 hrs by HPLC analysis; type: physicochemical; conditions: buffer, pH 7.4, 24 h
[2] = Drug level in pH 7.4 PBS treated with apomorphine at 8 uM measured immediately by HPLC analysis; type: physicochemical; conditions: buffer, pH 7.4, 8 µM
[3] = Drug level in pH 7.4 PBS treated with apomorphine at 50 uM measured after 8 hrs by HPLC analysis; type: physicochemical; conditions: buffer, pH 7.4, 8 h
[4] = biological target: Amyloid-beta precursor protein (Homo sapiens) (UniProt P05067); assay: Inhibition of HFIP pretreated amyloid beta (1 to 42) (unknown origin) aggregation assessed as time for nucleation phase of aggregation at 5 uM by Thioflavin-T fluorescence assay (reference value: 4 to 5 hrs)
Chain of Amyloid-beta precursor protein (Homo sapiens) (P05067 whole entry): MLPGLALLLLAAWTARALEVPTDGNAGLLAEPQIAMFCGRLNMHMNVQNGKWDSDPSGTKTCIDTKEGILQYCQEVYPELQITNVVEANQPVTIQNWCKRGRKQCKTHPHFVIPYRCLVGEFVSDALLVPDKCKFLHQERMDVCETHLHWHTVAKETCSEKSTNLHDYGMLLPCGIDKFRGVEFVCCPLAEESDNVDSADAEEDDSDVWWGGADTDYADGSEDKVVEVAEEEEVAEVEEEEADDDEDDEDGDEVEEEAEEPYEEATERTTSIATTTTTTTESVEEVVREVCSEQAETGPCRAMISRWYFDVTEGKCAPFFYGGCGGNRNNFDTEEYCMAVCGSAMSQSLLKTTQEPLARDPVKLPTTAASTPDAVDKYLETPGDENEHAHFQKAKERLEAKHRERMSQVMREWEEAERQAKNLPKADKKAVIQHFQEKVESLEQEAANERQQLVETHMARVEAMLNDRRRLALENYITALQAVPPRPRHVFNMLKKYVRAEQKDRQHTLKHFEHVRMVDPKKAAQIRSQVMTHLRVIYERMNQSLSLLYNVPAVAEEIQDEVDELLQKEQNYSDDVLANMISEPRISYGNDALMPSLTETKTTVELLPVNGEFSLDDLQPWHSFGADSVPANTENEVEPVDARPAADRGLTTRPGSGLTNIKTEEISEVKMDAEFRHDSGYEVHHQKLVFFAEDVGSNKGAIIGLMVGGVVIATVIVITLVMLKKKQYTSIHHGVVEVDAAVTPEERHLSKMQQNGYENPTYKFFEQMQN

[5] = biological target: Amyloid-beta precursor protein (Homo sapiens) (UniProt P05067); assay: Inhibition of amyloid beta (1 to 42) (unknown origin) aggregation at 5 uM by Thioflavin-T fluorescence assay; conditions: TDE = time-dependent effect
[6] = Drug level in pH 7.4 PBS treated with apomorphine at 50 uM up to 8 hrs by UV-Visible spectroscopic analysis; type: physicochemical; conditions: buffer, pH 7.4, 8 h
[7] = Drug level in pH 7.4 PBS at 50 uM measured after 1 hr by HPLC analysis; type: physicochemical; conditions: buffer, pH 7.4, 1 h
[8] = biological target: Amyloid-beta precursor protein (Homo sapiens) (UniProt P05067); assay: Inhibition of amyloid beta (1 to 42) (unknown origin)-mediated toxicity in human SH-SY5Y cells at 500 uM preincubated with amyloid beta (1 to 42) for 30 mins followed by addition to cells measured after 24 hrs by MTT assay; type: cell-based
[9] = Drug level in pH 7.4 PBS at 50 uM measured after 0 hrs by HPLC analysis; type: physicochemical; conditions: buffer, pH 7.4, 0 h
[10] = Drug level in pH 7.4 PBS at 50 uM measured after 4 hrs by HPLC analysis; type: physicochemical; conditions: buffer, pH 7.4, 4 h
[11] = Drug level in pH 7.4 PBS at 50 uM measured after 8 hrs by HPLC analysis; type: physicochemical; conditions: buffer, pH 7.4, 8 h
[12] = biological target: Amyloid-beta precursor protein (Homo sapiens) (UniProt P05067); assay: Binding affinity to amyloid beta (1 to 42) (unknown origin) assessed as retention time for amyloid beta (1 to 42)-compound adduct formation at 250 uM after 1 hr by LC/Q Tof-MS analysis
[13] = Drug level in pH 7.4 PBS at 50 uM measured after 24 hrs by HPLC analysis; type: physicochemical; conditions: buffer, pH 7.4, 24 h
[14] = Drug level in pH 7.4 PBS at 50 uM measured after 48 hrs by HPLC analysis; type: physicochemical; conditions: buffer, pH 7.4, 48 h
[15] = biological target: Amyloid-beta precursor protein (Homo sapiens) (UniProt P05067); assay: Inhibition of amyloid beta (1 to 42) (unknown origin) aggregation at 5 uM after 48 hrs by Thioflavin-T fluorescence assay relative to control
[16] = Drug level in pH 7.4 PBS at 50 uM measured after 2 hrs by HPLC analysis; type: physicochemical; conditions: buffer, pH 7.4, 2 h
[17] = Drug metabolism in pH 7.4 PBS assessed as auto-oxidization by measuring 6-methyl-5,6-dihydro-4H-dibenzo[de,g]quinoline-10,11-dione level at 50 uM measured after 4 hrs by HPLC analysis; type: physicochemical; conditions: buffer, pH 7.4, 4 h
[18] = biological target: Amyloid-beta precursor protein (Homo sapiens) (UniProt P05067); assay: Binding affinity to amyloid beta (1 to 42) (unknown origin) assessed as retention time for amyloid beta (1 to 42) - 6-methyl-5,6-dihydro-4H-dibenzo[de,g]quinoline-10,11-dione adduct at 250 uM after 1 hr by LC/Q Tof-MS analysis
[19] = biological target: Amyloid-beta precursor protein (Homo sapiens) (UniProt P05067); assay: Binding affinity to amyloid beta (1 to 42) (unknown origin) assessed as retention time for amyloid beta (1 to 42) (Lys28)-compound adduct at 250 uM after 1 hr by LC/Q Tof-MS analysis
[20] = biological target: Amyloid-beta precursor protein (Homo sapiens) (UniProt P05067); assay: Inhibition of amyloid beta (1 to 42) (unknown origin) aggregation by Thioflavin-T fluorescence assay
[21] = Drug metabolism in pH 7.4 PBS assessed as auto-oxidization by measuring 6-methyl-5,6-dihydro-4H-dibenzo[de,g]quinoline-10,11-dione level at 50 uM measured after 2 hrs by HPLC analysis; type: physicochemical; conditions: buffer, pH 7.4, 2 h
[22] = Drug metabolism in pH 7.4 PBS assessed as auto-oxidization by measuring 6-methyl-5,6-dihydro-4H-dibenzo[de,g]quinoline-10,11-dione level at 50 uM measured after 8 hrs by HPLC analysis; type: physicochemical; conditions: buffer, pH 7.4, 8 h
[23] = Drug metabolism in pH 7.4 PBS assessed as auto-oxidization by measuring 6-methyl-5,6-dihydro-4H-dibenzo[de,g]quinoline-10,11-dione level at 50 uM measured after 24 hrs by HPLC analysis; type: physicochemical; conditions: buffer, pH 7.4, 24 h
[24] = biological target: Amyloid-beta precursor protein (Homo sapiens) (UniProt P05067); assay: Binding affinity to amyloid beta (1 to 42) (unknown origin) assessed as retention time for amyloid beta (1 to 42) (Lys16)-compound adduct at 250 uM after 1 hr by LC/Q Tof-MS analysis
[25] = biological target: Amyloid-beta precursor protein (Homo sapiens) (UniProt P05067); assay: Binding affinity to amyloid beta (9 to 35) E22P M35ox mutant (unknown origin) oxidized at M35 residue assessed as E22P M35ox(Lys16/Lys28)-compound adduct formation at 250 uM after 1 hr by LC/Q Tof-MS analysis
[26] = biological target: Amyloid-beta precursor protein (Homo sapiens) (UniProt P05067); assay: Inhibition of amyloid beta (1 to 42) (unknown origin) aggregation at 0.25 to 50 uM after 48 hrs by uranyl acetate staining based transmission electron microscopic method
[27] = biological target: Amyloid-beta precursor protein (Homo sapiens) (UniProt P05067); assay: Inhibition of amyloid beta (1 to 42) (unknown origin) aggregation at 5 uM in presence of reductant TCEP by Thioflavin-T fluorescence assay
[28] = Drug metabolism in pH 7.4 PBS assessed as auto-oxidization by measuring 6-methyl-5,6-dihydro-4H-dibenzo[de,g]quinoline-10,11-dione level at 50 uM measured after 0 hrs by HPLC analysis; type: physicochemical; conditions: buffer, pH 7.4, 0 h
[29] = Drug metabolism in pH 7.4 PBS assessed as auto-oxidization by measuring 6-methyl-5,6-dihydro-4H-dibenzo[de,g]quinoline-10,11-dione level at 50 uM measured after 1 hr by HPLC analysis; type: physicochemical; conditions: buffer, pH 7.4, 1 h

Question: Which Drug metabolism [1] does the source give for `CN1CCc2cccc3c2C1=CC(=O)C3=O` here?
Answer: Its Drug metabolism is “Metabolite_Detected”.

Question: Which results are given for `CN1CCc2cccc3c4c(cc1c23)C=CC(=O)C4=O`?
Answer: Drug metabolism [2]: Metabolite_Detected; Drug metabolism [3]: Metabolite_Detected; TIME [4]: 6 to 7 h; inhibition [5]: Tde; Drug metabolism [6]: Metabolite_Detected; Drug uptake [7]: 24 µM; inhibition [8]: inactive; Drug uptake [9]: 31 µM; Drug uptake [10]: 24 µM; Drug uptake [11]: 24 µM; Activity [12]: inactive; Drug uptake [13]: 19 µM; Drug uptake [14]: 15 µM; inhibition [15]: > 50%; Drug uptake [16]: 22 µM

Question: With `CN1CCc2cccc3c2[C@H]1Cc1ccc(O)c(O)c1-3` [APOMORPHINE] as the compound, how does the Drug metabolism [17] read?
Answer: The Drug metabolism was 47 µM.

Question: And the Activity [18]?
Answer: The Activity was “Active”.

Question: And the Retention time [19]?
Answer: The Retention time was 6.9 min.

Question: What about the inhibition [20] of the same compound?
Answer: The inhibition was “Dose-dependent effect”.

Question: What about the Drug metabolism [21] of the same compound?
Answer: Its Drug metabolism is 32 µM.

Question: What about the Drug metabolism [22] of the same compound?
Answer: The Drug metabolism was 50 µM.

Question: And the Drug metabolism [23]?
Answer: The Drug metabolism was 25 µM.

Question: And the TIME [4]?
Answer: The TIME was 6 to 7 h.

Question: And the inhibition [5]?
Answer: Its inhibition is “Tde”.

Question: What about the Retention time [24] of the same compound?
Answer: The Retention time was 6.4 min.

Question: And the inhibition [8]?
Answer: Its inhibition is “inactive”.

Question: What about the Activity [25] of the same compound?
Answer: Its Activity is “Active”.

Question: And the inhibition [26]?
Answer: The inhibition was “Active”.

Question: What about the inhibition [27] of the same compound?
Answer: The inhibition was “inactive”.

Question: And the Drug metabolism [28]?
Answer: The Drug metabolism was 8 µM.

Question: And the Drug metabolism [29]?
Answer: The Drug metabolism was 23 µM.

Question: And the inhibition [15]?
Answer: Its inhibition is over 50%.

Question: For `CNCCc1cccc2c3c(ccc12)C=CC(=O)C3=O`, which Drug metabolism [1] is on record?
Answer: Its Drug metabolism is “Metabolite_Detected”.
